Data: patent US20250154149A1, “PHARMACEUTICAL COMPOSITION AND METHOD FOR PREPARING ACTIVE INGREDIENT COMPOUND THEREOF” (Betta Pharmaceuticals Co., Ltd., priority 2022, published 2025)

Assays:
[1] = test system: NCI-H226 (NF2 expression-deficient) human lung squamous cell carcinoma xenograft; assay: In vivo efficacy in subcutaneous NCI-H226 xenograft model; details: QD, oral, day 45, NCI-H226 xenograft in BALB/c nude mice
Procedure: In vivo pharmacodynamics and efficacy studies of the compound represented by Formula I were performed in a subcutaneous NCI-H226 (NF2 expression-deficient) human lung squamous cell carcinoma xenograft model in BALB/c nude mice.
BALB/c nude female mice (6 weeks to 7 weeks) were inoculated subcutaneously with 1×10^7 NCI-H226 tumor cells on the right side of each. The inoculated cells were resuspended in a mixture solution of 0.1 mL of PBS and matrix gel Matrigel (PBS: Matrigel=1:1). Administration treatment was started in groups when the average tumor size reached about 100 mm^3 to 200 mm^3. From the date of grouping, the mice were orally administered the crystal form A of the compound represented by Formula I (solvent: 10% DMSO+10% Solutol (KollipHor HS15)+80% physiological saline) once a day for a total of 45 days (QD×45 days). Animals were regularly monitored for changes in body weight as an indicator of compound safety. Tumors were measured twice weekly using a caliper, and the volume was expressed in mm^3 using the formula “V=(L×W^2)/2”, where V is the tumor volume, L is the length of the tumor (the longest tumor dimension) and W is the width of the tumor (the longest tumor dimension perpendicular to L). Compound inhibitory activity was assessed by tumor growth inhibition TGI (%). […]

[2] = Hygroscopicity test (DVS); type: physicochemical
[3] = Physicochemical stability test of the crystal form A; details: influencing factors (40° C., 60° C., 92.5% RH, 75% RH, 4500Lx), accelerated test, long-term test
Procedure: Referring to the requirements of “9001 Guidelines for Stability Test of APIs and Pharmaceutical Preparations” in the Chinese Pharmacopoeia, the stability test was conducted on the crystal form A of the compound represented by Formula I, and the specific test conditions are shown in Table 10.

[4] = Pressure stability of the crystal form A; type: physicochemical; details: pressure conditions of 150 kg and 230 kg
[5] = test system: NCI-H226 cells; assay: Cell proliferation inhibitory activity detection (CTG detection); type: cell-based; details: Homo sapiens; NCI-H226 cells (NF2 expression-deficient), 144 h, CellTiter-Glo; read-out: IC50 value (inhibition of cell proliferation)
Procedure: The inhibition of the compound on cell proliferation was detected using CellTiter-Glo® Luminescent Cell Viability Assay Kit (Promega Company). NCI-H226 cells (purchased from ATCC, NF2 expression-deficient) were cultured in RPMI 1640 complete medium (containing 10% FBS, 1% penicillin-streptomycin solution and 1 mM sodium pyruvate). • a) The day before compound treatment, cultured cells were washed with PBS, digested with trypsin, and then collected by centrifugation. The supernatant was removed and the cells were resuspended in fresh RPMI 1640 complete medium. […] Finally, the luminescence signal value (RLU) of each well was read on a multifunctional microplate reader PE En Vision®.
Inhibition rate (IR) of the detected compound: IR (%)=(1−(RLU compound−RLU blank control)/(RLU solvent control−RLU blank control))*100%. The inhibition rates of the compounds at different concentrations were calculated in Excel, then software GraphPad Prism was used to generate inhibition curves, and the relevant parameters were calculated, including the minimum inhibition rate Bottom. the maximum inhibition rate Top and IC50. […]

[6] = Pharmacokinetics in plasma of mice after oral administration; type: in vivo; details: female, BALB/c, mouse, oral (gavage, clear solution), single dose 5 mg/kg
Procedure: Adult BALB/c female mice (6 weeks to 7 weeks) were received a single administration of the compound represented by Formula I containing 10% to 20% DMSO, 10% Solutol (KollipHor HS15) and 80% to 70% physiological saline as excipient. Mice (n=3) were administered orally (gavage, clear solution) at a dose of 5 mg/kg. Blood was collected after oral administration at the following points of time: 15 min, 30 min, 1 h, 2 h, 4 b, 7 h, and 24 h. About 0.1 mL of whole blood was collected from the retro-orbital venous plexus and placed in a test tube containing EDTA anticoagulant. Samples were centrifuged at 4° C. and 4000 rpm for 10 min. Plasma was transferred to a centrifugal tube and stored at −20° C. before analysis. The concentration of test compound in plasma samples was analyzed by liquid chromatography-tandem mass spectrometry (LC-MS/MS). Plasma concentration-time data from individual animals were analyzed using software Sciex Analyst. A non-compartmental model was introduced in the concentration analysis, and pharmacokinetic parameters of the test compound were calculated using software WinNonlin (version 4.1; pHarsight).

[7] = test system: YAP/TAZ-TEAD transcription complex; assay: CTGF detection (ELISA method) in NCI-H2052 cells; type: cell-based, human; details: NCI-H2052 cells (NF2 mutation), 24 hours incubation, CTGF in culture supernatant by ELISA; read-out: EC50 value (CTGF concentration response curve)
Procedure: The detection of CTGF expression level may assess the activity of the YAP/TAZ-TEAD transcription complex. CTGF expression level was quantitatively detected using a human SimpleStep ELISA® kit (Abcam, ab261851).
NCI-H2052 cells (purchased from ATCC, NF2 mutation) were cultured in RPMI 1640 complete medium (containing 10% FBS, 1% penicillin-streptomycin solution and I mM sodium pyruvate). The day before compound treatment, cultured cells were washed with PBS, digested with trypsin, and then collected by centrifugation. The supernatant was removed, and the cells were resuspended in fresh complete medium. Cells were counted and inoculated in 96-well plates at a density of 6500 cells/well. […]
The Human CTGF ELISA Kit uses an affinity labeled capture antibody and a reporter gene coupled detection antibody to immunocapture the sample analytes in the solution. […] 50 μL of standard or cell supernatant sample to be detected were added to the wells of the detection plate. […] Finally, the OD value at 450 nm of each well was read on a multifunctional microplate reader. The concentrations of the target CTGF protein in the samples were determined by standard curve.
The inhibitory activity of the compound of the present application on the transcription regulatory function of TEAD-YAP/TAZ was assessed by the CTGF concentration response curve of the compound. […]

Row | Crystal form after the DVS test (XRPD) ([2]; after DVS test, XRPD detection) | Hygroscopicity (DVS) ([2]; dynamic vapor sorption analyzer) | Change in crystal form, characteristics and content compared with day 0 [3] | Crystal form after pressing [4] | IC50 [5] | AUC(0-t) [6] | Cmax [6] | EC50 [7] | Structure (SMILES) | TGI (%) ([1]; 10 mg/kg) | TGI (%) ([1]; 50 mg/kg)
1 | no change in the crystal form | no hygroscopicity | no significant change | the crystal form was not changed |  |  |  |  | C=C(F)C(=O)N1CC(n2c(=O)n(-c3ccc(C(F)(F)F)cc3)c3nccnc32)C1 [1-[1-(2-fluoroacryloyl)azetidin-3-yl]-3-(4-trifluoromethylphenyl)-1,3-dihydro-2H-imidazo[4,5-b]pyrazin-2-one] | 109% | 111%
2 |  |  |  |  | 7 nM | 17.2 µg·h/mL | 1.97 µg/mL | 2 nM | C=C(F)C(=O)N1CC(n2c(=O)n(-c3ccc(C(F)(F)F)cc3)c3nccnc32)C1 [compound represented by Formula I, 1-[1-(2-fluoroacryloyl)azetidin-3-yl]-3-(4-trifluoromethylphenyl)-1,3-dihydro-2H-imidazo[4,5-b]pyrazin-2-one] |  | 
